Test results taken from patent US20250230125A1 (The Board of Regents of The University of Texas System, priority 2022, published 2025).

Tests used:
[1] = biological target: T1, CYP2C19 (Homo sapiens, UniProt P33261); conditions: microsomes, 10 µM
[2] = biological target: T2, 5-HT3 (Homo sapiens, UniProt P46098); test: NIMH PDSP radioligand binding displacement, 5-HT3; conditions: radioligand [^3H]-LY278584
T2 sequence (P46098 24-478): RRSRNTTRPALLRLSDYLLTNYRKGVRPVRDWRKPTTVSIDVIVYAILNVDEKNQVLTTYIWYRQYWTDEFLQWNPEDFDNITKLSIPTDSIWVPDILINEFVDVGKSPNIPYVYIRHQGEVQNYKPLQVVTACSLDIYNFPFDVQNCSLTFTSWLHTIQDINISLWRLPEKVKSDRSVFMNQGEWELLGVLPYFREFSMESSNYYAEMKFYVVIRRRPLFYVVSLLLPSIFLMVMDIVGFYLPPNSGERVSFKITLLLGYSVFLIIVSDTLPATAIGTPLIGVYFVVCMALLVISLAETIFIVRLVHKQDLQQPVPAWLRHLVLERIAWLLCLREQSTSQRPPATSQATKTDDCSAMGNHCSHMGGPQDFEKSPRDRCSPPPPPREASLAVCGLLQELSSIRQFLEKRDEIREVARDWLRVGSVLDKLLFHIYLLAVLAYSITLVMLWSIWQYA
Excerpt: . To explore the off-target profile of the two compounds, the National Institute of Mental Health (NIMH) Psychoactive Drug Screening Program (PDSP) were utilized to assess in a broad-panel of GPCRs and monoamine transporters (Table 4). […]. [table]

[3] = biological target: T3, CYP2C8 (Homo sapiens, UniProt P10632); conditions: microsomes, 10 µM
T3 sequence (P10632 1-490): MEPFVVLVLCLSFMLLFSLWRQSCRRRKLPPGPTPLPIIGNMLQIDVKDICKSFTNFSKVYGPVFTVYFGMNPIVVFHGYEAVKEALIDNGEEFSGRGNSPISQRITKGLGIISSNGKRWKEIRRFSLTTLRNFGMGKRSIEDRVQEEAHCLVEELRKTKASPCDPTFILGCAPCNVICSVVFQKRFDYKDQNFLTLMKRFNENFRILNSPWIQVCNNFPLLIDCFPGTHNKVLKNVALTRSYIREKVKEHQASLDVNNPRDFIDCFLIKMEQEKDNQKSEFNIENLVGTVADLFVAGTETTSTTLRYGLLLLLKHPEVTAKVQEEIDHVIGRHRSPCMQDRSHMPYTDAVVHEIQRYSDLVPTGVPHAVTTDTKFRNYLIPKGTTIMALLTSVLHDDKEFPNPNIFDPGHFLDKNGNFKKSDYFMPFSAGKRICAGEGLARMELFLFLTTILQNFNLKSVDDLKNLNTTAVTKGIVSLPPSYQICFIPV

[4] = tested on: hMDRI-MDCKII cells; test: MDCK-MDR1 membrane permeability and efflux; type: in vitro ADME
[5] = biological target: T4, CYP2D6 (Homo sapiens, UniProt P10635); test: in vitro; conditions: microsomes
[6] = biological target: T5, CYP2C9 (Homo sapiens, UniProt P11712); test: in vitro; conditions: microsomes
[7] = biological target: T6, CYP3A4 (Homo sapiens, UniProt P08684); test: in vitro; conditions: microsomes
[8] = biological target: T7, CYP2B6 (Homo sapiens, UniProt P20813); test: in vitro; conditions: microsomes
T7 sequence (P20813 1-491): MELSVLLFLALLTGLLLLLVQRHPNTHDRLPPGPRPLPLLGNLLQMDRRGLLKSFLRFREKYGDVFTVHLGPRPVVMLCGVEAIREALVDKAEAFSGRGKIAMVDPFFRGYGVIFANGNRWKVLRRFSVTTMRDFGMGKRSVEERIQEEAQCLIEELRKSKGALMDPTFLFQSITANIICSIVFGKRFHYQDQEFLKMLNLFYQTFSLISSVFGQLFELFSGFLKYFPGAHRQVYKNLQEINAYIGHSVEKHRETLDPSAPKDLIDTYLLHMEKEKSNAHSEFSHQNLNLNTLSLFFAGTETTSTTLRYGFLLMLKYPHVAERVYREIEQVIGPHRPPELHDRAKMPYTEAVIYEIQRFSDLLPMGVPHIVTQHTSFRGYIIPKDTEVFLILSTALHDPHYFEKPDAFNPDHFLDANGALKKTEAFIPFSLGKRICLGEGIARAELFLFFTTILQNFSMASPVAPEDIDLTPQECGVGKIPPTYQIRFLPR

[9] = biological target: T1, CYP2C19; test: in vitro; conditions: microsomes
[10] = biological target: T8, CYP1A2 (Homo sapiens, UniProt P05177); test: Human liver microsomes P450 inhibition, CYP1A2
T8 sequence (P05177 1-516): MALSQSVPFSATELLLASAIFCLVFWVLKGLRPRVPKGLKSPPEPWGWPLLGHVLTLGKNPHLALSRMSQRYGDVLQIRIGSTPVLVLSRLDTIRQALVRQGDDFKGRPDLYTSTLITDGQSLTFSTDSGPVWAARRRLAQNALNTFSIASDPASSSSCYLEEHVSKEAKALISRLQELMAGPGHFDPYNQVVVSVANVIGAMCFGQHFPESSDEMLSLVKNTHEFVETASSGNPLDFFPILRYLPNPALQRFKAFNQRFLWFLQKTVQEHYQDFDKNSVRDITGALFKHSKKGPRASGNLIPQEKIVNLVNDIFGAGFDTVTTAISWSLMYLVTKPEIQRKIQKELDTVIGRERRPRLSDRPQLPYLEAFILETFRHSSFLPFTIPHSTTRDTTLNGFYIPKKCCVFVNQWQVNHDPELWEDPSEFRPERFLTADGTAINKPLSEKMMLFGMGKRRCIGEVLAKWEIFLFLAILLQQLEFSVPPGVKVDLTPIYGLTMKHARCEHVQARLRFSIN

[11] = biological target: T3, CYP2C8; test: in vitro; conditions: microsomes
[12] = biological target: T4, CYP2D6; conditions: microsomes, 10 µM
[13] = biological target: T6, CYP3A4; conditions: microsomes, 10 µM
[14] = Rat liver microsomal intrinsic clearance; type: in vitro ADME; conditions: rat liver microsomes
[15] = biological target: T7, CYP2B6; conditions: microsomes, 10 µM
[16] = biological target: T5, CYP2C9; conditions: microsomes, 10 µM

T4 sequence (P10635 whole entry): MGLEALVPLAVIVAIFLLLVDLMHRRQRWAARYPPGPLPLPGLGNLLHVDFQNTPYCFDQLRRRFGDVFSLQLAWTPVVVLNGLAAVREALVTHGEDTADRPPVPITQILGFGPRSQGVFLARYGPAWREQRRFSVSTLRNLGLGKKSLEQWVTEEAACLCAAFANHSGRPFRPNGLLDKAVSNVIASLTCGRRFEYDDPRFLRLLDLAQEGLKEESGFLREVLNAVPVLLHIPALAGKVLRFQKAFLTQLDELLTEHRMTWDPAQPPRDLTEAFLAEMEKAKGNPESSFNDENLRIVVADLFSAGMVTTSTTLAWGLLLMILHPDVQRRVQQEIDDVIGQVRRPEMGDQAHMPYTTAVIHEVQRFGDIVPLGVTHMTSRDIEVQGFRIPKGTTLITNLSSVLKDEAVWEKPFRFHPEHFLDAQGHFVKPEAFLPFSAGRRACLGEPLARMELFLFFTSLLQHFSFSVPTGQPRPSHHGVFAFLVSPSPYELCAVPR
T5 sequence (P11712 whole entry): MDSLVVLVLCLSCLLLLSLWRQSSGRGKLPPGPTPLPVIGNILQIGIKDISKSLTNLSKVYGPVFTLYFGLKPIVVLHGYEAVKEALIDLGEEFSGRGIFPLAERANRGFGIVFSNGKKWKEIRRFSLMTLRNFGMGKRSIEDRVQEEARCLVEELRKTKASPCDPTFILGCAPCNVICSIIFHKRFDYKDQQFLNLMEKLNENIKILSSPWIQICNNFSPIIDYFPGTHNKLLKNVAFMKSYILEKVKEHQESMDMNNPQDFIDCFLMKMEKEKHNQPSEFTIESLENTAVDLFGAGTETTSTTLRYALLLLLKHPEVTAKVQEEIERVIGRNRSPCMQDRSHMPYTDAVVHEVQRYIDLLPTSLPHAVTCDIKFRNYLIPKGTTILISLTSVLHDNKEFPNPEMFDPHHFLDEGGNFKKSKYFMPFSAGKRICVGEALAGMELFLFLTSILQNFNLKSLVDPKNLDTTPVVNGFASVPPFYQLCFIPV
T6 sequence (P08684 whole entry): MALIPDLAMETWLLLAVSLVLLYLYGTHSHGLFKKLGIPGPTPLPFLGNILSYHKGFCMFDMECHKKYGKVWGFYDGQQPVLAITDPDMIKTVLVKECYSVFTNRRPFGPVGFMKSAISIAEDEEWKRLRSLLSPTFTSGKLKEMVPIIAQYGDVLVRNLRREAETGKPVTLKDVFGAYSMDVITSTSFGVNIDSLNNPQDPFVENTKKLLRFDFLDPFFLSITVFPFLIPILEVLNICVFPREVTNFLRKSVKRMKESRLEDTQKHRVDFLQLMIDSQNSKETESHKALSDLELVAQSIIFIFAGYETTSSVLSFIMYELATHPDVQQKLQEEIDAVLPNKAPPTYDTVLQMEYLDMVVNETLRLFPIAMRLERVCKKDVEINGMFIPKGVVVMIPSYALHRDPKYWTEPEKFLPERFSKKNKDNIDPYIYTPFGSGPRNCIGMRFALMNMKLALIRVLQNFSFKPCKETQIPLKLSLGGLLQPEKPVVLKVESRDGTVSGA
T1 sequence (P33261 whole entry): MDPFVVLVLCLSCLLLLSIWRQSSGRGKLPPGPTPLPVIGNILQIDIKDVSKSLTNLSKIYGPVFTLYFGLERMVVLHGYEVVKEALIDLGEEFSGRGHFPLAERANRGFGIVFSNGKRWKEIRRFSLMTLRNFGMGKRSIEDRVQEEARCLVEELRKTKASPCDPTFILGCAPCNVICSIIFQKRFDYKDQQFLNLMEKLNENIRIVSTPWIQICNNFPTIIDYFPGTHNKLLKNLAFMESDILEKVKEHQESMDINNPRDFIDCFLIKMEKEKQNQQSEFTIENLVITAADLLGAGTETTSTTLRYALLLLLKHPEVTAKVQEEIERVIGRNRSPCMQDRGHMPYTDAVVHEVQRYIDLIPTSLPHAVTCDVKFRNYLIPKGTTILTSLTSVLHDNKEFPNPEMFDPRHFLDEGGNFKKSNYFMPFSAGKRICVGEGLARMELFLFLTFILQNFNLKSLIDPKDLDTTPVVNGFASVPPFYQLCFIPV

## CCCCCCCC/C=C\CCCCCCCC(=O)NC(CO)(CO)CO [Compound 13, N-(1,3-dihydroxy-2-(hydroxymethyl)propan-2-yl)]
[1]
  Inhibitory % CYP2C19: 18.34%
[2]
  inhibition at 10 µM: 5.63%
[3]
  Inhibitory % CYP2C8: 11.87%
[4]; With Pgp inhibitor
  PappB→A: PappB→A = 4.77 × 10^−6 cm/s
[4]; Without Pgp inhibitor
  PappB→A: PappB→A = 3.23 × 10^−6 cm/s
[5]
  inhibition at 10 µM: < 20%
[6]
  inhibition at 10 µM: < 20%
[7]
  inhibition at 10 µM: < 20%
[8]
  inhibition at 10 µM: > 50%
[9]
  inhibition at 10 µM: < 20%
[10]; 10 μM, human liver microsomes
  Inhibitory % CYP1A2: 3.4%
[10]; human, microsomes
  inhibition at 10 µM: < 20%
[11]
  inhibition at 10 µM: < 20%
[12]
  Inhibitory % CYP2D6: 10.13%
[13]
  Inhibitory % CYP3A4 (midazolam): 18.72%
[14]
  Liver microsomal clearance CLR: CLR = 174.66 μL/min/mg
[15]
  Inhibitory % CYP2B6: 53.31%
[16]
  Inhibitory % CYP2C9: 21.2%
